Laboratory results from publication PMC3510438, “The transmembrane tyrosines Y56, Y91 and Y167 play important roles in determining the affinity and transport rate of the rabbit proton-coupled peptide transporter PepT1” (The International Journal of Biochemistry & Cell Biology, 2009).
Numbering of substitutions follows the chain as printed. Where a SMILES comes first, the peptide text is derived from it.

Key:
Type in all cases: cell-based, rabbit
Y91F-rPepT1 [1] = target: T1, Y91F-rPepT1 (Oryctolagus cuniculus, UniProt P36836, Y91F); assay: Competition of [3H]-D-Phe-L-Gln uptake into Xenopus oocytes, Ki; conditions: against 0.4 μM [3H]-D-Phe-L-Gln uptake
T1 construct: expressed in transfected cells; host or cells: Xenopus laevis oocytes injected with cRNA
T1 sequence (P36836 1-707 Y91F): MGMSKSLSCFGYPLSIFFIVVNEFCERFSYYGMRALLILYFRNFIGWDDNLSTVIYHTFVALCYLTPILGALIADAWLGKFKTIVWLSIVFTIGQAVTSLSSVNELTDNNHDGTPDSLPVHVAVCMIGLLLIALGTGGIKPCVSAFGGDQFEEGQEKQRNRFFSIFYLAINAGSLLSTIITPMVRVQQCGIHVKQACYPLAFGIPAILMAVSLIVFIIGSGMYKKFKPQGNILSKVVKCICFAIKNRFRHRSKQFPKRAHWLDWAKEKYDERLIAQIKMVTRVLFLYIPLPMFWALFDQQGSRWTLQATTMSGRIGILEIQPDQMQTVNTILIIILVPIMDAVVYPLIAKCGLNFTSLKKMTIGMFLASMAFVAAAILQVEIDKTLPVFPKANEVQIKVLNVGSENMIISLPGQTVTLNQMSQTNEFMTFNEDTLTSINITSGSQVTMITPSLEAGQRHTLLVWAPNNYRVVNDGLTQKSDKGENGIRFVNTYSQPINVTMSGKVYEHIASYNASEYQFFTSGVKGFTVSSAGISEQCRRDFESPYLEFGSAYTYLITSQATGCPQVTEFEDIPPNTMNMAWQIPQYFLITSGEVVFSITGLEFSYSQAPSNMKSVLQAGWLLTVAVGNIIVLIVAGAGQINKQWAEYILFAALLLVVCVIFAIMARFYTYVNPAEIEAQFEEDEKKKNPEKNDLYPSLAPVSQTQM
Method: (§1) rPepT1 constructs were linearised with XbaI (New England Biolabs, UK) and cRNA generated by in vitro transcription (T7 mMessage mMachine, Ambion, Cambridgeshire, UK). Xenopus laevis oocytes were obtained under MS222 anaesthesia (0.2%, w/v) in accordance with the UK Animals (Scientific Procedures) Act, 1986, and maintained at 18 °C in modified Barth's medium (88 mM NaCl, 1 mM KCl, 0.82 mM MgSO4, 2.4 mM NaHCO3, 0.42 mM CaCl2, 10 mM Hepes, 5 mM sodium pyruvate, 50 μg ml^−1 gentamicin (Fluka, Poole, UK), adjusted to pH 7.6 with 1 M NaOH). Transport measurements were performed at least 72 h after micro-injection of oocytes with 27nl cRNA (1 μg/μl), with medium changed daily.
(§2) Uptake of [^3H]-D-Phe-L-Gln (17.4 Ci/mmole, custom synthesised, Cambridge Research Biochemicals, Stockton-on-Tees, UK) was performed as previously described ([Meredith, 2004]). Briefly, 5 oocytes were incubated in 100 μl of uptake medium (95 mM NaCl, 2 mM KCl, 1 mM CaCl2, 0.42 mM MgCl2, 10 mM Tris/Hepes pH 7.4 or Tris/Mes pH 5.5) with tracer (0.4 μM) [^3H]-D-Phe-L-Gln. After incubation, the oocytes were washed sequentially five times in 1 ml of ice-cold 120 mM NaCl solution, lysed individually with 100 μl 2% (w/v) SDS and liquid scintillation counted. As a control non-injected oocytes were also incubated in uptake medium with D-Phe-L-Gln as above.
(§3) The affinity of wild-type and mutant rPepT1 transporters were assessed by competition studies with 0.4 μM [^3H]-D-Phe-L-Gln and Gly-L-Gln present in the uptake medium in concentrations from 0 to 2 mM using the protocol above, and the Ki calculated using the method of [Deves and Boyd (1989)].

Y12F-rPepT1 = target: T2, Y12F-rPepT1 (Oryctolagus cuniculus, UniProt P36836, Y12F); assay: as above; conditions: against 0.4 μM [3H]-D-Phe-L-Gln uptake
T2 construct: expressed in transfected cells; host or cells: Xenopus laevis oocytes injected with cRNA
T2 sequence (P36836 1-707 Y12F): T1 sequence (P36836 1-707 Y91F) with Y12F, F91Y
Method: as §1, §2, §3

Y91F-rPepT1 [2] = target: T1, Y91F-rPepT1; assay: Uptake of tracer [3H]-D-Phe-L-Gln into Xenopus oocytes; conditions: corrected for surface expression; versus wild-type
Method: as §1
Uptake of [^3H]-D-Phe-L-Gln (17.4 Ci/mmole, custom synthesised, Cambridge Research Biochemicals, Stockton-on-Tees, UK) was performed as previously described ([Meredith, 2004]). […] After incubation, the oocytes were washed sequentially five times in 1 ml of ice-cold 120 mM NaCl solution, lysed individually with 100 μl 2% (w/v) SDS and liquid scintillation counted. […]
Luminometry assays were performed as described previously ([Panitsas et al., 2006]). […] Luminometer (Turner-Designs 20/20, Promega) readings for at least 15 oocytes per data point were taken immediately.

Ki (Y91F-rPepT1 [1]; pHout 5.5) [µM] | Ki (Y91F-rPepT1 [1]; pHout 7.4) [µM] | Ki (Y12F-rPepT1; pHout 5.5) [µM] | Ki (Y12F-rPepT1; pHout 7.4) [µM] | decrease in the rate of transport per protein molecule (Y91F-rPepT1 [2]) [%] | Compound
1400 ± 310 | 460 ± 90 | 220 ± 20 | 90 ± 20 |  | NCC(=O)N[C@@H](CCC(N)=O)C(=O)O [Gly-L-Gln] (H-Gly-Gln-OH)
 |  |  |  | 40 | [^3H]-D-Phe-L-Gln
